Test results as given in ChEMBL document CHEMBL3132855, “Synthesis and antiviral evaluation of 4-(1,2,3-triazol-1-yl)thymidines” (Medchemcomm, 2014).
Active and inactive are the calls of the source. The rule behind the calls is not given here.

Experiments:
Hepatitis C virus = assay: Antiviral activity against HCV1b infected in human HuH-7 cells assessed as inhibition of viral replication at 10 uM after 3 days by luciferase assay; format: functional, organism-based; conditions: Hepacivirus hominis, genotype 1b
West Nile virus = assay: Antiviral activity against West Nile virus infected in baby hamster BHK-WII RepRen1B cells assessed as inhibition of viral replication at 10 uM after 3 days by luciferase assay; format: functional, organism-based
Influenza A virus [1] = assay: Antiviral activity against Influenza A/WSN/33 virus infected in MDCK cells assessed as inhibition of virus-induced cytopathic effect at 10 uM after 5 days by neutral red assay; format: functional; conditions: A/WSN/1933(H1N1), 120 h
Influenza A virus [2] = assay: Antiviral activity against Influenza A/WSN/33 virus infected in human A549 cells assessed as inhibition of virus-induced cytopathic effect at 10 uM after 5 days by neutral red assay; format: functional; conditions: A/WSN/1933(H1N1), A549, 120 h
[3] = Cytotoxicity against human CEM-SS cells assessed as cell viability at 10 uM after 6 days by MTS assay; format: cell-based; conditions: read-out: Activity
[4] = system: Human immunodeficiency virus 1; assay: Antiviral activity against HIV1 3B infected in human CEM-SS cells assessed as inhibition of virus-induced cytopathic effect at 10 uM after 6 days by MTS assay; format: functional; conditions: Human immunodeficiency virus 1, 3B, 144 h

Question: Which results are given for `Cc1cn([C@H]2C[C@H](O)[C@](CO)(n3cc(-c4ccc(Oc5ccccc5)cc4)nn3)O2)c(=O)[nH]c1=O`?
Answer: inhibition (Hepatitis C virus): inactive; inhibition (West Nile virus): inactive; inhibition at 10 µM (Influenza A virus [1]): 1%; inhibition at 10 µM (Influenza A virus [2]): 48%; viability at 144 h, 10 µM [3]: 95%; inhibition at 10 µM [4]: 1%

Question: For `Cc1cn([C@H]2C[C@H](O)[C@](CO)(n3cc(COc4ccccc4)nn3)O2)c(=O)[nH]c1=O`, which inhibition (Hepatitis C virus) is on record?
Answer: inactive

Question: And the inhibition (West Nile virus)?
Answer: inactive

Question: And the inhibition at 10 µM (Influenza A virus [2])?
Answer: 10%

Question: What about the viability at 144 h, 10 µM [3] of the same compound?
Answer: 97%

Question: And the inhibition at 10 µM [4]?
Answer: 0%

Question: For `Cc1ccc(-c2cn([C@]3(CO)O[C@@H](n4cc(C)c(=O)[nH]c4=O)C[C@@H]3O)nn2)cc1`, which inhibition (Hepatitis C virus) is on record?
Answer: inactive

Question: And the inhibition (West Nile virus)?
Answer: inactive

Question: And the inhibition at 10 µM (Influenza A virus [2])?
Answer: 0%

Question: And the viability at 144 h, 10 µM [3]?
Answer: 99%

Question: What about the inhibition at 10 µM [4] of the same compound?
Answer: 0%

Question: For `Cc1cn([C@H]2C[C@H](O)[C@](CO)(n3cc(C4CC4)nn3)O2)c(=O)[nH]c1=O`, which inhibition (Hepatitis C virus) is on record?
Answer: inactive

Question: What about the inhibition (West Nile virus) of the same compound?
Answer: inactive

Question: What about the inhibition at 10 µM (Influenza A virus [2]) of the same compound?
Answer: 0%

Question: And the viability at 144 h, 10 µM [3]?
Answer: 99%

Question: What about the inhibition at 10 µM [4] of the same compound?
Answer: 0%

Question: Which results are given for `Cc1cn([C@H]2C[C@H](O)[C@](CO)(n3cc(CON4C(=O)c5ccccc5C4=O)nn3)O2)c(=O)[nH]c1=O`?
Answer: inhibition (Hepatitis C virus): inactive; inhibition (West Nile virus): inactive; inhibition at 10 µM (Influenza A virus [2]): 3.7%; viability at 144 h, 10 µM [3]: 99%; inhibition at 10 µM [4]: 1%

Question: For `Cc1cn([C@H]2C[C@H](O)[C@](CO)(n3cc(-c4ccc(-c5ccccc5)cc4)nn3)O2)c(=O)[nH]c1=O`, which inhibition (Hepatitis C virus) is on record?
Answer: inactive

Question: And the inhibition (West Nile virus)?
Answer: inactive

Question: What about the inhibition at 10 µM (Influenza A virus [2]) of the same compound?
Answer: 1.7%

Question: What about the viability at 144 h, 10 µM [3] of the same compound?
Answer: 80%

Question: And the inhibition at 10 µM [4]?
Answer: 31%

Question: With `Cc1cn([C@H]2C[C@H](O)[C@](CO)(n3cc(CSc4ccccc4)nn3)O2)c(=O)[nH]c1=O` as the compound, how does the inhibition (Hepatitis C virus) read?
Answer: inactive

Question: What about the inhibition (West Nile virus) of the same compound?
Answer: inactive

Question: And the inhibition at 10 µM (Influenza A virus [2])?
Answer: 3.3%

Question: What about the viability at 144 h, 10 µM [3] of the same compound?
Answer: 99%

Question: And the inhibition at 10 µM [4]?
Answer: 20%

Question: With `Cc1cn([C@H]2C[C@H](O)[C@](CO)(n3cc(C4CCCCC4)nn3)O2)c(=O)[nH]c1=O` as the compound, how does the inhibition (Hepatitis C virus) read?
Answer: inactive

Question: And the inhibition (West Nile virus)?
Answer: inactive

Question: What about the inhibition at 10 µM (Influenza A virus [2]) of the same compound?
Answer: 2.2%

Question: And the viability at 144 h, 10 µM [3]?
Answer: 96%

Question: And the inhibition at 10 µM [4]?
Answer: 0%

Question: For `CCOC(=O)C(Cc1ccc(OCc2cn([C@]3(CO)O[C@@H](n4cc(C)c(=O)[nH]c4=O)C[C@@H]3O)nn2)cc1)NC(=O)OC(C)(C)C` (stereo partly specified), which inhibition (Hepatitis C virus) is on record?
Answer: inactive

Question: And the inhibition (West Nile virus)?
Answer: inactive

Question: What about the inhibition at 10 µM (Influenza A virus [2]) of the same compound?
Answer: 0%

Question: What about the viability at 144 h, 10 µM [3] of the same compound?
Answer: 97%

Question: What about the inhibition at 10 µM [4] of the same compound?
Answer: 0%

Question: Which inhibition (Hepatitis C virus) does the source give for `Cc1cn([C@H]2C[C@H](O)[C@](CO)(n3cc(-c4cc5ccccc5c5ccccc45)nn3)O2)c(=O)[nH]c1=O` here?
Answer: inactive

Question: What about the inhibition (West Nile virus) of the same compound?
Answer: inactive

Question: And the inhibition at 10 µM (Influenza A virus [2])?
Answer: 0%

Question: And the viability at 144 h, 10 µM [3]?
Answer: 86%

Question: What about the inhibition at 10 µM [4] of the same compound?
Answer: 0%

Question: What does the source list for `Cc1cn([C@H]2C[C@H](O)[C@](CO)(n3cc(-c4ccc(F)cc4)nn3)O2)c(=O)[nH]c1=O`?
Answer: inhibition (Hepatitis C virus): inactive; inhibition (West Nile virus): inactive; inhibition at 10 µM (Influenza A virus [2]): 0%; viability at 144 h, 10 µM [3]: 95%; inhibition at 10 µM [4]: 0%

Question: With `Cc1cn([C@H]2C[C@H](O)[C@](CO)(n3cc(COc4ccc5ccccc5c4)nn3)O2)c(=O)[nH]c1=O` as the compound, how does the inhibition (Hepatitis C virus) read?
Answer: inactive

Question: And the inhibition (West Nile virus)?
Answer: inactive

Question: What about the inhibition at 10 µM (Influenza A virus [1]) of the same compound?
Answer: 1%

Question: And the inhibition at 10 µM (Influenza A virus [2])?
Answer: 16%

Question: And the viability at 144 h, 10 µM [3]?
Answer: 93%

Question: And the inhibition at 10 µM [4]?
Answer: 0%

Question: With `Cc1cn([C@H]2C[C@H](O)[C@](CO)(n3cc(C(O)c4ccccc4)nn3)O2)c(=O)[nH]c1=O` (stereo partly specified) as the compound, how does the inhibition (Hepatitis C virus) read?
Answer: inactive

Question: And the inhibition (West Nile virus)?
Answer: inactive

Question: What about the inhibition at 10 µM (Influenza A virus [2]) of the same compound?
Answer: 5%

Question: And the viability at 144 h, 10 µM [3]?
Answer: 100%

Question: And the inhibition at 10 µM [4]?
Answer: 0%

Question: Which inhibition (Hepatitis C virus) does the source give for `Cc1cn([C@H]2C[C@H](O)[C@](CO)(n3cc(-c4ccsc4)nn3)O2)c(=O)[nH]c1=O` here?
Answer: inactive

Question: What about the inhibition (West Nile virus) of the same compound?
Answer: inactive

Question: And the inhibition at 10 µM (Influenza A virus [2])?
Answer: 0%

Question: And the viability at 144 h, 10 µM [3]?
Answer: 100%

Question: And the inhibition at 10 µM [4]?
Answer: 19%

Question: With `COc1ccc2cc(-c3cn([C@]4(CO)O[C@@H](n5cc(C)c(=O)[nH]c5=O)C[C@@H]4O)nn3)ccc2c1` as the compound, how does the inhibition (Hepatitis C virus) read?
Answer: inactive

Question: And the inhibition (West Nile virus)?
Answer: inactive

Question: And the inhibition at 10 µM (Influenza A virus [2])?
Answer: 0%

Question: What about the viability at 144 h, 10 µM [3] of the same compound?
Answer: 95%

Question: What about the inhibition at 10 µM [4] of the same compound?
Answer: 18%

Question: Which results are given for `Cc1cn([C@H]2C[C@H](O)[C@](CO)(n3cc(CO)nn3)O2)c(=O)[nH]c1=O`?
Answer: inhibition (Hepatitis C virus): inactive; inhibition (West Nile virus): inactive; inhibition at 10 µM (Influenza A virus [2]): 0%; viability at 144 h, 10 µM [3]: 100%; inhibition at 10 µM [4]: 2%

Question: Which results are given for `Cc1cn([C@H]2C[C@H](O)[C@](CO)(n3cc(C4CCCC4)nn3)O2)c(=O)[nH]c1=O`?
Answer: inhibition (Hepatitis C virus): inactive; inhibition (West Nile virus): inactive; inhibition at 10 µM (Influenza A virus [2]): 3.1%; viability at 144 h, 10 µM [3]: 100%; inhibition at 10 µM [4]: 5%

Question: Which results are given for `Cc1cn([C@H]2C[C@H](O)[C@](CO)(n3cc(-c4ccc(N(C)C)cc4)nn3)O2)c(=O)[nH]c1=O`?
Answer: inhibition (Hepatitis C virus): inactive; inhibition (West Nile virus): inactive; inhibition at 10 µM (Influenza A virus [1]): 1%; inhibition at 10 µM (Influenza A virus [2]): 21%; viability at 144 h, 10 µM [3]: 100%; inhibition at 10 µM [4]: 12%

Question: Which results are given for `Cc1cn([C@H]2C[C@H](O)[C@](CO)(n3cc(C(C)O)nn3)O2)c(=O)[nH]c1=O` (stereo partly specified)?
Answer: inhibition (Hepatitis C virus): inactive; inhibition (West Nile virus): inactive; inhibition at 10 µM (Influenza A virus [2]): 0%; viability at 144 h, 10 µM [3]: 100%; inhibition at 10 µM [4]: 8%

Question: With `Cc1cn([C@H]2C[C@H](O)[C@](CO)(n3cc(-c4ccccc4)nn3)O2)c(=O)[nH]c1=O` as the compound, how does the inhibition (Hepatitis C virus) read?
Answer: inactive

Question: What about the inhibition (West Nile virus) of the same compound?
Answer: inactive

Question: And the inhibition at 10 µM (Influenza A virus [2])?
Answer: 0%

Question: What about the viability at 144 h, 10 µM [3] of the same compound?
Answer: 94%

Question: What about the inhibition at 10 µM [4] of the same compound?
Answer: 62%

Question: What does the source list for `CC(=O)Nc1ccc(-c2cn([C@]3(CO)O[C@@H](n4cc(C)c(=O)[nH]c4=O)C[C@@H]3O)nn2)cc1`?
Answer: inhibition (Hepatitis C virus): inactive; inhibition (West Nile virus): inactive; inhibition at 10 µM (Influenza A virus [1]): 3%; inhibition at 10 µM (Influenza A virus [2]): 54%; viability at 144 h, 10 µM [3]: 98%; inhibition at 10 µM [4]: 0%

Question: With `COc1ccc(-c2cn([C@]3(CO)O[C@@H](n4cc(C)c(=O)[nH]c4=O)C[C@@H]3O)nn2)cc1` as the compound, how does the inhibition (Hepatitis C virus) read?
Answer: inactive

Question: And the inhibition (West Nile virus)?
Answer: inactive

Question: What about the inhibition at 10 µM (Influenza A virus [1]) of the same compound?
Answer: 1%

Question: What about the inhibition at 10 µM (Influenza A virus [2]) of the same compound?
Answer: 19%

Question: And the viability at 144 h, 10 µM [3]?
Answer: 84%

Question: What about the inhibition at 10 µM [4] of the same compound?
Answer: 0%

Question: Which results are given for `Cc1cn([C@H]2C[C@H](O)[C@](CO)(n3cc(-c4ccc(Br)cc4)nn3)O2)c(=O)[nH]c1=O`?
Answer: inhibition (Hepatitis C virus): inactive; inhibition (West Nile virus): inactive; inhibition at 10 µM (Influenza A virus [1]): 4%; inhibition at 10 µM (Influenza A virus [2]): 18%; viability at 144 h, 10 µM [3]: 100%; inhibition at 10 µM [4]: 60%

Question: For `COc1ccc2c(-c3cn([C@]4(CO)O[C@@H](n5cc(C)c(=O)[nH]c5=O)C[C@@H]4O)nn3)cccc2c1`, which inhibition (Hepatitis C virus) is on record?
Answer: inactive

Question: What about the inhibition (West Nile virus) of the same compound?
Answer: inactive

Question: And the inhibition at 10 µM (Influenza A virus [2])?
Answer: 5.3%

Question: What about the viability at 144 h, 10 µM [3] of the same compound?
Answer: 95%

Question: What about the inhibition at 10 µM [4] of the same compound?
Answer: 0%
